Measured values published in ChEMBL document CHEMBL1131670, “N-hydroxyurea and hydroxamic acid inhibitors of cyclooxygenase and 5-lipoxygenase” (Bioorg Med Chem Lett, 1999).

What was measured:
[1] = target: T1, Prostaglandin G/H synthase 1 (Ovis aries) (UniProt P05979); assay: Inhibitory activity against Cyclooxygenase using sheep seminal vesicle (SSV) enzyme (COX-1) at 10 uM; assay type: tissue-based
T1 sequence (whole entry): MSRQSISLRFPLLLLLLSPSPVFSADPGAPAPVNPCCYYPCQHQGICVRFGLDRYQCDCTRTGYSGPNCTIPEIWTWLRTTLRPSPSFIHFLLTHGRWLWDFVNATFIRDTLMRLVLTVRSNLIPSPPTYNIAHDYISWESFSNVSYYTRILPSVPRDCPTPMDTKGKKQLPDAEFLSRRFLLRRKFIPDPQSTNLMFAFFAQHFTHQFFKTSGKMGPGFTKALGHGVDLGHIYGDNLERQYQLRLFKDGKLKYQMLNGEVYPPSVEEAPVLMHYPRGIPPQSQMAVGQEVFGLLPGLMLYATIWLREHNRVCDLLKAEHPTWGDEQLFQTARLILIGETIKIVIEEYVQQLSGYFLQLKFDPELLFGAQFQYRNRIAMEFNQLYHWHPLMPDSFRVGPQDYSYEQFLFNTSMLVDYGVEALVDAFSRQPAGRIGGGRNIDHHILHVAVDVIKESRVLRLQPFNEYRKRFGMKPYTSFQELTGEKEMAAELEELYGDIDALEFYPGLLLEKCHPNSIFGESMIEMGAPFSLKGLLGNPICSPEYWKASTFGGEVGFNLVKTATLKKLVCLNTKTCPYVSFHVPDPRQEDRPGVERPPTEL

Cyclooxygenase [2] = target: T2, Cyclooxygenase (Rattus norvegicus, UniProt P35355+Q63921); assay: Inhibitory activity against cyclooxygenase (COX) in intact rat […] leukemia cells (RBL-1); assay type: cell-based
T2 sequence (P35355 whole entry): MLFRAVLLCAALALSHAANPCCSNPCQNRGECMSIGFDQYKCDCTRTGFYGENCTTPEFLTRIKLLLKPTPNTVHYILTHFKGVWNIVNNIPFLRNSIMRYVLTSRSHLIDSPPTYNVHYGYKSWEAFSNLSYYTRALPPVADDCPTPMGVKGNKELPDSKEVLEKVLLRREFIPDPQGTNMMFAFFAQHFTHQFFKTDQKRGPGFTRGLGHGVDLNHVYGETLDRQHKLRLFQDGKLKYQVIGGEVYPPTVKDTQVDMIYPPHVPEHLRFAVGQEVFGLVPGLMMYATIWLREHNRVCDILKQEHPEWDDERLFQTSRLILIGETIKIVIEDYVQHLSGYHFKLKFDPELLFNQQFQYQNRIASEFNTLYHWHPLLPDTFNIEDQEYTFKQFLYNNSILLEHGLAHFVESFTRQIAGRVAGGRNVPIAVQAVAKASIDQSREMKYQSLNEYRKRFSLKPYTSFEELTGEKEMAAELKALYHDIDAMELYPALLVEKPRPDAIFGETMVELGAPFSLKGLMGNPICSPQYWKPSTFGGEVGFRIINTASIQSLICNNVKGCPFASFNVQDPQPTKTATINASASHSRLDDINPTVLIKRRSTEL
T2 sequence (Q63921 whole entry): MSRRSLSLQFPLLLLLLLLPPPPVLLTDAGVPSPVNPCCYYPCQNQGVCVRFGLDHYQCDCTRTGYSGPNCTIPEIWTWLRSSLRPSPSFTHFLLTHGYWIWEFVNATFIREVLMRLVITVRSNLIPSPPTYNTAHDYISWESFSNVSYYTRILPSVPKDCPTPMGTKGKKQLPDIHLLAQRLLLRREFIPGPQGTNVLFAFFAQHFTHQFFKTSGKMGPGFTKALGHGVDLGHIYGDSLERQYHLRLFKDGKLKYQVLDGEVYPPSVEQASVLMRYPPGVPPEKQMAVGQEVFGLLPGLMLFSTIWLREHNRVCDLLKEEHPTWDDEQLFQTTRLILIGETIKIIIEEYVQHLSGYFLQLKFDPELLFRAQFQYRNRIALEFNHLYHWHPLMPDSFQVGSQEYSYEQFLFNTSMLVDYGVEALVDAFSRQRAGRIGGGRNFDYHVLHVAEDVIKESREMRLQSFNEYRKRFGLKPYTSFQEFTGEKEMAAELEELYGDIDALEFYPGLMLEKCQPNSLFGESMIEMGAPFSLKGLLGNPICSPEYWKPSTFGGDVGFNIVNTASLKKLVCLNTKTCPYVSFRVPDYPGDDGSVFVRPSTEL

[3] = target: T3, Polyunsaturated fatty acid 5-lipoxygenase (Rattus norvegicus) (UniProt P12527); assay: Inhibitory activity against 5-lipoxygenase (5-LO) using broken rat […] leukemia cells (RBL-1)at 10 uM; assay type: cell-based
T3 sequence (whole entry): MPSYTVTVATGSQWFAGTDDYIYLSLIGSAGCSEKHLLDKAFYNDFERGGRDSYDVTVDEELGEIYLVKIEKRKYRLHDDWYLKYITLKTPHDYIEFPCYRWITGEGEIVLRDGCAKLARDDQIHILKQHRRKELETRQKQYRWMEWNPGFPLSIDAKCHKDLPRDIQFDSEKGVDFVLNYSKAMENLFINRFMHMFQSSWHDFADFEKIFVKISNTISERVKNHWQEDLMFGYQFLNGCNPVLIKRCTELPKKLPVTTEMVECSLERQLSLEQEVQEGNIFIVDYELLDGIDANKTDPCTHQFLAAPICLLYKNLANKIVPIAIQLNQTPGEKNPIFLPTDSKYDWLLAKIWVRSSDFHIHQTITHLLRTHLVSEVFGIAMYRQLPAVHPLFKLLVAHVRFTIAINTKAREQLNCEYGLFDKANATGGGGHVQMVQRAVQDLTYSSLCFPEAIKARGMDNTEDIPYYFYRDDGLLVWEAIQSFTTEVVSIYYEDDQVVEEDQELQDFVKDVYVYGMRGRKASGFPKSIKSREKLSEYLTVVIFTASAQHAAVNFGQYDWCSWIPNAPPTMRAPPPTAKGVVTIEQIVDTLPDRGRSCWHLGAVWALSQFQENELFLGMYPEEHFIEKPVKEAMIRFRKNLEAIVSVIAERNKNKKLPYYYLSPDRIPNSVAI

Cyclooxygenase [4] = target: T2, Cyclooxygenase; assay: Inhibitory activity against Cyclooxygenase (COX) using broken rat […] leukemia cells (RBL-1); assay type: cell-based
[5] = target: T1, Prostaglandin G/H synthase 1 (Ovis aries); assay: Inhibitory activity against Cyclooxygenase using sheep seminal vesicle (SSV) enzyme (COX-1)at 10 uM; assay type: tissue-based
[6] = target: T3, Polyunsaturated fatty acid 5-lipoxygenase (Rattus norvegicus); assay: Inhibitory activity against 5-lipoxygenase (5-LO) using broken rat […] leukemia cells (RBL-1) at 10 uM; assay type: cell-based
[7] = target: Cyclooxygenase (Rattus norvegicus) (UniProt P35355+Q63921); assay: Inhibitory activity against Cyclooxygenase (COX) using broken rat […] leukemia cells (RBL-1) at 10 uM; assay type: cell-based

| Structure (SMILES) | inhibition [1] [%] | IC50 (Cyclooxygenase [2]) [nM] | inhibition [3] [%] | IC50 (Cyclooxygenase [4]) [nM] | inhibition [5] [%] | inhibition [6] [%] | inhibition [7] [%] |
| --- | --- | --- | --- | --- | --- | --- | --- |
| CCC(=O)N(O)CC#Cc1cc(-c2ccc(C)cc2)n(-c2ccc(OC)cc2)n1 | 79 | 60 | 100 |  |  |  |  |
| COc1ccc(-n2nc(C#CCN(O)C(=O)c3ccncc3)cc2-c2ccc(C)cc2)cc1 | 17 | 5500 | 89 |  |  |  |  |
| COc1ccc(-n2nc(C#CC(C)N(O)C(=O)c3cccnc3)cc2-c2ccc(C)cc2)cc1 (stereo unspecified) |  | 11500 |  |  |  | 88 | 54 |
| COc1ccc(-n2nc(C#CC(C)N(O)C(=O)c3ccco3)cc2-c2ccc(C)cc2)cc1 (stereo unspecified) |  |  |  |  |  | 70 | 61 |
| CCOC(=O)C(=O)N(O)C(C)C#Cc1cc(-c2ccc(C)cc2)n(-c2ccc(OC)cc2)n1 (stereo unspecified) | 66 | 3400 | 71 |  |  |  |  |
| CCOC(=O)CCC(=O)N(O)C(C)C#Cc1cc(-c2ccc(C)cc2)n(-c2ccc(OC)cc2)n1 (stereo unspecified) |  | 10000 | 97 |  |  |  |  |
| COc1ccc(-n2nc(C#CCN(O)C(=O)c3ccccc3)cc2-c2ccc(C)cc2)cc1 | 52 |  | 100 |  |  |  |  |
| COc1ccc(-n2nc(C#CC(C)N(O)C(=O)C(F)(F)F)cc2-c2ccc(C)cc2)cc1 (stereo unspecified) |  | 190 |  | 50 |  |  |  |
| CCOC(=O)CCC(=O)N(O)C(C)C#Cc1cc(-c2ccc(CC)cc2)n(-c2ccc(OC)cc2)n1 (stereo unspecified) | 3 | 14000 |  |  |  | 97 | 52 |
| COC(=O)N(O)CC#Cc1cc(-c2ccc(C)cc2)n(-c2ccc(OC)cc2)n1 | 74 | 280 | 100 |  |  |  |  |
| CCc1ccc(-c2cc(C#CC(C)N(O)C(=O)OC)nn2-c2ccc(OC)cc2)cc1 (stereo unspecified) | 21 | 750 | 78 |  |  |  |  |

The remaining lines, values ahead:

| inhibition [1] [%] | IC50 (Cyclooxygenase [2]) [nM] | inhibition [3] [%] | IC50 (Cyclooxygenase [4]) [nM] | inhibition [5] [%] | inhibition [6] [%] | inhibition [7] [%] | Structure (SMILES) |
| --- | --- | --- | --- | --- | --- | --- | --- |
|  | 220 |  | 10 |  |  |  | CCC(C#Cc1cc(-c2ccc(C)cc2)n(-c2ccc(OC)cc2)n1)N(O)C(C)=O (stereo unspecified) |
|  | 1600 |  |  | 14 |  |  | COc1ccc(-n2nc(C#CC(C)N(O)C(=O)N3CCOCC3)cc2-c2ccc(Cl)cc2)cc1 (stereo unspecified) |
|  | 110 |  | 10 |  |  |  | COc1ccc(-n2nc(C#CC(C)N(O)C(C)=O)cc2-c2ccc(C)cc2)cc1 (stereo unspecified) |
| 22 | 2100 |  | 15900 |  |  |  | CCC(C#Cc1cc(-c2ccc(C)cc2)n(-c2ccc(OC)cc2)n1)N(O)C(N)=O (stereo unspecified) |
| 5 | 5500 |  | 14900 |  |  |  | COc1ccc(-n2nc(C#CC(C)N(O)C(=O)c3ccccc3)cc2-c2ccc(Cl)cc2)cc1 (stereo unspecified) |
|  | 340 |  | 60 |  |  |  | CCc1ccc(-c2cc(C#CC(C)N(O)C(C)=O)nn2-c2ccc(OC)cc2)cc1 (stereo unspecified) |
|  | 1700 | 100 |  |  |  | 86 | CCc1ccc(-c2cc(C#CC(C)N(O)C(=O)CCl)nn2-c2ccc(OC)cc2)cc1 (stereo unspecified) |
|  | 90 |  | 40 |  |  |  | COc1ccc(-n2nc(C#CC(C)N(O)C(=O)C(C)C)cc2-c2ccc(C)cc2)cc1 (stereo unspecified) |
| 9 |  |  |  |  |  | 0 | COc1ccc(-n2nc(C#CCN(O)C(N)=O)cc2-c2ccc(Cl)cc2)cc1 |
|  | 180 |  |  |  | 93 |  | CCc1ccc(-c2cc(C#CC(C)N(O)C(=O)C(C)C)nn2-c2ccc(OC)cc2)cc1 (stereo unspecified) |
| 29 | 1200 |  | 4600 |  |  |  | COc1ccc(-n2nc(C#CC(C(C)C)N(O)C(N)=O)cc2-c2ccc(C)cc2)cc1 (stereo unspecified) |
|  | 490 |  | 140 |  |  |  | COC(=O)N(O)C(C)C#Cc1cc(-c2ccc(C)cc2)n(-c2ccc(OC)cc2)n1 (stereo unspecified) |
|  | 290 |  |  |  | 77 | 84 | COC(=O)N(O)C(C)C#Cc1cc(-c2ccc(Cl)cc2)n(-c2ccc(OC)cc2)n1 (stereo unspecified) |
| 38 | 14500 | 90 |  |  |  |  | COc1ccc(-n2nc(C#CC(C(C)C)N(O)C(N)=O)cc2-c2ccc(Cl)cc2)cc1 (stereo unspecified) |
|  | 6200 |  |  |  |  | 0 | COc1ccc(-n2nc(C#CC(C)N(O)C(N)=O)cc2-c2ccc(Cl)cc2)cc1 (stereo unspecified) |
